Structures are written as SMILES.

The target in assay [1] is T1, PAF receptor (human platelet plasma membranes) (Homo sapiens, UniProt P25105).
T1 construct: Platelet concentrates were obtained from a hospital blood bank; from tissue; host or cells: human platelets (platelet concentrates from a hospital blood bank), lysed membranes
In words: Inhibition of [^3 H]-PAF receptor binding to human platelet plasma membranes. Particulars: [^3 H]-PAF 0.5 nM, 0° C., 1 hour incubation, pH 7.0. The method, then:
The inhibition of [^3 H]-PAF binding to human platelet plasma membranes by compounds of general formula I was determined by isotopic labelling and filtration techniques. Platelet concentrates were obtained from a hospital blood bank. These platelet concentrates (500-2500 ml.) were centrifuged at 800 rpm for 10 minutes in a SORVALL RC3B centrifuge to remove the red blood cells present. (The word SORVALL is a trade mark.) The supernalant was subsequently centrifuged at 3,000 rpm in a SORVALL RC3B centrifuge to pellet the platelets present. The platelet rich pellets were resuspended in a minimum volume of buffer (150 mM NaCl, 10 mM Tris, 2 mM EDTA, pH 7.5) and layered onto Ficoll-Paque gradients, 9 ml platelet concentrate to 2 ml Ficoll, and centrifuged at 1,900 rpm for 15 minutes in a SORVALL RT6000 centrifuge. This step removes the residual red blood cells and other nonspecific material such as lymphocytes from the preparation. The platelets which form a band between the plasma and the Ficoll were removed, resuspended in the above buffer and centrifuged at 3,000 rpm for 10 minutes in a SORVALL RT6000 centrifuge. The pelleted platelets were resuspended in buffer (10 mM Tris, 5mM MgCl2, 2 mM EDTA, pH 7.0), snap freezed in liquid N2 and allowed to thaw slowly at room temperature in order to lyse the platelets. The latter step was repeated at least 3 times to ensure proper lysis. […]

For assay [2], the system named is PAF-induced hypotension in the rat. In words: Inhibition of PAF-induced hypotension in the rat. In kind it is in vivo, rat (male Sprague-Dawley). Particulars: iv, anaesthetised rats, PAF 100 ng/kg/min i.v. infusion, test compound i.v. bolus, straight line interpolation, read-out: ED50, dose to cause a 50% reversal of the hypotensive PAF response. The method, then: Male Sprague-Dawley rats (300-400 g) were anaesthetised with a mixture of sodium pentobarbitone, 22.5 mg/kg and thiopental 62.5 mg/kg. Through a midline incision in the neck, the trachea was cannulated and the animals breathed spontaneously. A carotid artery was cannulated for the measurement of blood pressure and this signal was used to trigger a rate meter to measure heart rate. Both jugular veins were cannulated: one for the infusion of PAF and the other for the bolus administration of test compounds.
PAF, 100 ng/kg/min was infused i.v. until a sustained fall in mean blood pressure of 50 mmHg was achieved. […] The peak of this reversal was measured and the dose to cause a 50% reversal of the hypotensive PAF response (ED50) calculated by straight line interpolation and the results are presented in Table 2.

T1 sequence (P25105 whole entry): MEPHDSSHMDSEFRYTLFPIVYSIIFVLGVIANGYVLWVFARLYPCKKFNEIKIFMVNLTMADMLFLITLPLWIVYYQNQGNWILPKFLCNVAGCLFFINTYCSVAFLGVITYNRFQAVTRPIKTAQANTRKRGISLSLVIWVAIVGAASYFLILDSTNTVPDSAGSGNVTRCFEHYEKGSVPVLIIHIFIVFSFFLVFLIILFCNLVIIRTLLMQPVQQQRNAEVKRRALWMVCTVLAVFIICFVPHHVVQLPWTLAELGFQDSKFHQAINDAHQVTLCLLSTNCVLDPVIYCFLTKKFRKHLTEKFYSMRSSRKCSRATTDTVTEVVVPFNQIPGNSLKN

As for `CCCCCCCC1CCC(OCCCn2c(C)nc3cnccc32)O1` (stereo not drawn) [Example 2, O-(3-(2-Methylimidazo[4,5-c]pyrid-1-yl)propyl)-5-n-heptyl-gamma-butyrolactol ether], the IC50 (as a rule, the concentration needed to halve the response being measured) in assay [1] was determined as 120 nM. Moreover, the ED50 – broadly, the midpoint of the dose-response relation – in assay [2] turned out to be 2.1 µg/kg.
As to `CCCCCCCC1CCCC(OCCCn2c(C)nc3cnccc32)O1` (stereo not drawn) [Example 1, O-(3-(2-Methylimidazo[4,5-c]pyrid-1-yl)propyl)-5-n-heptyl-delta-valerolactol ether], in assay [1], the 50% inhibitory concentration (IC50) worked out at 80 nM.

For the origin of these results see US5637595A, “Cyclic ether acetal PAF antagonists” (British Bio-technology Limited, priority 1991, dated 1997).
